Experimental data from PMC10294378, “Synthesis, α-Glucosidase inhibitory activity and docking studies of Novel Ethyl 1,2,3-triazol-4-ylmethylthio-5,6-diphenylpyridazine-4-carboxylate derivatives” (BMC Chemistry, 2023).
“Also recorded” adds a separate entry of the source.

Legend:
[1] = target: rat small intestine α-glucosidase; assay: Rat α-glucosidase assay (4-nitrophenol release from pNPG); format: biochemical; conditions: for IC50: rat small intestine α-glucosidase, means of three replicates ± standard deviation; for α-glucosidase inhibitory activity (in words): SAR discussion
Description: Based on the reported method of Lossow et al., rat small intestine α-glucosidase (EC 3.2.1.20) was prepared. The in-vitro activity was determined by the measurement of 4-nitrophenol which was released from para-nitrophenyl α-D glucopyranoside. The preparation of 200 µL was performed as follows: the enzyme solution (190 µL, 0.15 units/ml), different concentrations of target compounds (1, 10, 20, 50, 100, 500 and 1000 µM (5 µL), potassium phosphate buffer. Final compounds were dissolved in DMSO (not exceed than 5% of final volume) and pre-incubated at 37 °C, p-nitrophenyl glucopyranoside and then substrate (5 µL, 3 mM), was added to the enzyme solution and incubated for further one hour at 37 °C. Finally, by using Cytation 3 hybrid microplate reader (BioTek, USA) any change in the absorbance was measured at 405 nm. By using GraphPadprism 6.0 (SanDiego, California, USA) (https://www.graphpad.com/scientificsoftware/prism/) was used to obtain IC50 values of tested compounds.

[2] = test system: α-glucosidase; assay: Kinetic analysis (Lineweaver-Burk and secondary plot); format: biochemical, rat
Description: Modes of enzyme inhibition were determined by recording the effect of various concentrations of the substrates 1, 2.5, 5 or 10 mM pNPG for α-glucosidase on Lineweaver–Burk plots using calculated Vmax and Km. For inhibition test of α-glucosidase: the concentrations applied for compounds 10k was 0.1, 1, 5 and 10 nM. Inhibition constants (Ki) were determined by depicting the secondary plot of Km against various concentrations of inhibitors.
The activity of […] (PNPG) was investigated in the presence and absence of compound 10k.

[3] = test system: HDF; assay: Cytotoxicity against normal cell line; format: cell-based

Structure (SMILES)	IC50 [1]	melting point	α-glucosidase inhibitory activity (in words) [1]	folds more active than standard drug (acarbose) ([1]; ratio of IC50 values against acarbose)	mode of inhibition [2]	cytotoxicity [3]
CCOC(=O)c1c(SCc2cn(CC(=O)Nc3ccc(OC)cc3)nn2)nnc(-c2ccccc2)c1-c1ccccc1 [Compound 10f, Ethyl 3-(((1-(2-((4-methoxyphenyl)amino)-2-oxoethyl)-1H-1,2,3-triazol-4-yl)methyl)thio)-5,6-diphenylpyridazine-4-carboxylate]	25.2 ± 2.5 µM	230 to 232 °C	–	–	–	–
CCOC(=O)c1c(SCc2cn(CC(=O)Nc3cccc([N+](=O)[O-])c3)nn2)nnc(-c2ccccc2)c1-c1ccccc1 [Compound 10p, Ethyl 3-(((1-(2-((3-nitrophenyl)amino)-2-oxoethyl)-1H-1,2,3-triazol-4-yl)methyl)thio)-5,6-diphenylpyridazine-4-carboxylate]	84 ± 13.2 µM	201 to 203 °C	–	–	–	–
CCOC(=O)c1c(SCc2cn(CC(=O)Nc3ccc([N+](=O)[O-])c(C)c3)nn2)nnc(-c2ccccc2)c1-c1ccccc1 [Compound 10r, Ethyl 3-(((1-(2-((3-methyl-4-nitrophenyl)amino)-2-oxoethyl)-1H-1,2,3-triazol-4-yl)methyl)thio)-5,6-diphenylpyridazine-4-carboxylate]	> 250 µM	212 to 214 °C	no activity	–	–	–
CCOC(=O)c1c(SCc2cn(CC(=O)Nc3ccc(Cl)cc3)nn2)nnc(-c2ccccc2)c1-c1ccccc1 [Compound 10j, Ethyl 3-(((1-(2-((4-chlorophenyl)amino)-2-oxoethyl)-1H-1,2,3-triazol-4-yl)methyl)thio)-5,6-diphenylpyridazine-4-carboxylate]	21 ± 5.3 µM	195 to 197 °C	–	–	–	–
CCOC(=O)c1c(SCc2cn(CC(=O)Nc3cccc(Cl)c3)nn2)nnc(-c2ccccc2)c1-c1ccccc1 [Compound 10i, Ethyl 3-(((1-(2-((3-chlorophenyl)amino)-2-oxoethyl)-1H-1,2,3-triazol-4-yl)methyl)thio)-5,6-diphenylpyridazine-4-carboxylate]	> 250 µM	200 to 202 °C	no inhibitory activity	–	–	–
CCOC(=O)c1c(SCc2cn(CC(=O)Nc3ccc(F)cc3)nn2)nnc(-c2ccccc2)c1-c1ccccc1 [10 g, Ethyl 3-(((1-(2-((4-fluorophenyl)amino)-2-oxoethyl)-1H-1,2,3-triazol-4-yl)methyl)thio)-5,6-diphenylpyridazine-4-carboxylate]	37.5 ± 7.2 µM	211 to 213 °C	–	–	–	–
CCOC(=O)c1c(SCc2cn(CC(=O)Nc3ccccc3)nn2)nnc(-c2ccccc2)c1-c1ccccc1 [Compound 10a, Ethyl 3-(((1-(2-oxo-2-(phenylamino)ethyl)-1H-1,2,3-triazol-4-yl)methyl)thio)-5,6-diphenylpyridazine-4-carboxylate]	35.6 ± 8.9 µM	147 to 149 °C	–	–	–	–
CCOC(=O)c1c(SCc2cn(CC(=O)Nc3ccc(C)cc3)nn2)nnc(-c2ccccc2)c1-c1ccccc1 [Compound 10c, Ethyl 3-(((1-(2-oxo-2-(p-tolylamino)ethyl)-1H-1,2,3-triazol-4-yl)methyl)thio)-5,6-diphenylpyridazine-4-carboxylate]	> 250 µM	207 to 209 °C	–	–	–	–
CCOC(=O)c1c(SCc2cn(CC(=O)Nc3ccc(C(C)C)cc3)nn2)nnc(-c2ccccc2)c1-c1ccccc1 [Compound 10d, Ethyl 3-(((1-(2-((4-isopropylphenyl)amino)-2-oxoethyl)-1H-1,2,3-triazol-4-yl)methyl)thio)-5,6-diphenylpyridazine-4-carboxylate]	86.5 ± 7.3 µM	183 to 185 °C	–	–	–	–
CCOC(=O)c1c(SCc2cn(CC(=O)Nc3cc(Cl)cc(Cl)c3)nn2)nnc(-c2ccccc2)c1-c1ccccc1 [10 L, Ethyl 3-(((1-(2-((3,5-dichlorophenyl)amino)-2-oxoethyl)-1H-1,2,3-triazol-4-yl)methyl)thio)-5,6-diphenylpyridazine-4-carboxylate]	14.1 ± 3.3 µM	185 to 187 °C	active	–	–	–
CCOC(=O)c1c(SCc2cn(CC(=O)Nc3ccc(Br)cc3)nn2)nnc(-c2ccccc2)c1-c1ccccc1 [Compound 10k, Ethyl 3-(((1-(2-((4-bromophenyl)amino)-2-oxoethyl)-1H-1,2,3-triazol-4-yl)methyl)thio)-5,6-diphenylpyridazine-4-carboxylate]	1.7 ± 0.12 µM	224 to 226 °C	–	100 folds	uncompetitive	not toxic; also recorded: No toxicity
CCOC(=O)c1c(SCc2cn(CC(=O)Nc3cccc(C#N)c3)nn2)nnc(-c2ccccc2)c1-c1ccccc1 [Compound 10n, Ethyl 3-(((1-(2-((3-cyanophenyl)amino)-2-oxoethyl)-1H-1,2,3-triazol-4-yl)methyl)thio)-5,6-diphenylpyridazine-4-carboxylate]	> 250 µM	196 to 198 °C	–	–	–	–
CCOC(=O)c1c(SCc2cn(CC(=O)Nc3ccc([N+](=O)[O-])cc3)nn2)nnc(-c2ccccc2)c1-c1ccccc1 [Compound 10q, Ethyl 3-(((1-(2-((4-nitrophenyl)amino)-2-oxoethyl)-1H-1,2,3-triazol-4-yl)methyl)thio)-5,6-diphenylpyridazine-4-carboxylate]	47.1 ± 5.6 µM	221 to 223 °C	active	–	–	–
CCOC(=O)c1c(SCc2cn(CC(=O)Nc3cccc(C)c3)nn2)nnc(-c2ccccc2)c1-c1ccccc1 [Compound 10b, Ethyl 3-(((1-(2-oxo-2-(m-tolylamino)ethyl)-H-1,2,3-triazol-4-yl)methyl)thio)-5,6-diphenylpyridazine-4-carboxylate]	58.9 ± 7.5 µM	–	–	–	–	–
C[C@H]1O[C@H](O[C@H]2[C@H](O)[C@@H](O)[C@@H](O[C@H]3[C@H](O)[C@@H](O)C(O)O[C@@H]3CO)O[C@@H]2CO)[C@H](O)[C@@H](O)[C@@H]1N[C@H]1C=C(CO)[C@@H](O)[C@H](O)[C@H]1O (stereo partly drawn) [Acarbose, reference compound]	170 ± 23.1 µM	–	–	–	–	–
CCOC(=O)c1c(SCc2cn(CC(=O)Nc3ccccc3Cl)nn2)nnc(-c2ccccc2)c1-c1ccccc1 [10 h, Ethyl 3-(((1-(2-((2-chlorophenyl)amino)-2-oxoethyl)-1H-1,2,3-triazol-4-yl)methyl)thio)-5,6-diphenylpyridazine-4-carboxylate]	14.9 ± 1.9 µM	161 to 163 °C	–	–	–	–
CCOC(=O)c1c(SCc2cn(CC(=O)Nc3cccc(OC)c3)nn2)nnc(-c2ccccc2)c1-c1ccccc1 [Compound 10e, Ethyl 3-(((1-(2-((3-methoxyphenyl)amino)-2-oxoethyl)-1H-1,2,3-triazol-4-yl)methyl)thio)-5,6-diphenylpyridazine-4-carboxylate]	35.7 ± 3.9 µM	155 to 157 °C	–	–	–	–
CCOC(=O)c1c(SCc2cn(CC(=O)Nc3ccc(Cl)c(Cl)c3)nn2)nnc(-c2ccccc2)c1-c1ccccc1 [10 m, Ethyl 3-(((1-(2-((3,4-dichlorophenyl)amino)-2-oxoethyl)-1H-1,2,3-triazol-4-yl)methyl)thio)-5,6-diphenylpyridazine-4-carboxylate]	27.7 ± 3 µM	166 to 168 °C	active	–	–	–
